According to US9980943B2, “Methods of treating muscular dystrophy” (BOARD OF REGENTS OF THE NEVADA SYSTEM OF HIGHER EDUCATION, …, priority 2013, dated 2018):

Tests used:
Assay type in all cases: cell-based, mouse
[1] = system: α7 integrin (LacZ reporter in α7βgal+/− myoblasts); assay: Myoblast α7+/LacZ integrin FDG assay (Burkin assay in myoblasts, 96-well); settings: α7+/LacZ myoblasts, 96-well
[2] = system: β-galactosidase in CMV-LacZ C2C12 myotubes; assay: CMV-LacZ secondary screen in C2C12 myotubes (β-Gal stabilizing assay); settings: for CMV-LACZ in Myotubes (β-galactosidase activity relative to DMSO): CMV-LacZ C2C12 myotubes, 96-well format
Method in brief: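 First, C2C12 myoblasts were transfected with a linearized CMV-LACZ vector and clonal lines selected by FDG β-gal assay. Then cells were exposed to compounds at 0.5, 1, 5, 10, 20 and 40 μM in 96-well format, two replicates each, and β-gal measured.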

[3] = system: α7 integrin (LacZ reporter in α7+/LacZ myotubes); assay: Myotube α7 integrin FDG assay (Burkin assay in myotubes, 96-well); settings: myotubes
[4] = 5 uM, C2C12 CMV-LacZ myotubes, fold relative to DMSO
[5] = 10 uM, C2C12 CMV-LacZ myotubes, fold relative to DMSO
[6] = 20 uM, C2C12 CMV-LacZ myotubes, fold relative to DMSO
[7] = 40 uM, C2C12 CMV-LacZ myotubes, fold relative to DMSO

SMILES	Burkin Assay in Myoblasts, value relative to DMSO ([1]; 0.5 uM)	Burkin Assay in Myoblasts, value relative to DMSO ([1]; 1 uM)	Burkin Assay in Myoblasts, value relative to DMSO ([1]; 5 uM)	Burkin Assay in Myoblasts, value relative to DMSO ([1]; 10 uM)	Burkin Assay in Myoblasts, value relative to DMSO ([1]; 20 uM)	Burkin Assay in Myoblasts, value relative to DMSO ([1]; 40 uM)	CMV-LACZ in Myotubes (β-galactosidase activity relative to DMSO) ([2]; 5 uM)	CMV-LACZ in Myotubes (β-galactosidase activity relative to DMSO) ([2]; 10 uM)	CMV-LACZ in Myotubes (β-galactosidase activity relative to DMSO) ([2]; 20 uM)	CMV-LACZ in Myotubes (β-galactosidase activity relative to DMSO) ([2]; 40 uM)	Burkin Assay in Myotubes (signal relative to DMSO) ([3]; 0.5 uM)	Burkin Assay in Myotubes (signal relative to DMSO) ([3]; 1 uM)	Burkin Assay in Myotubes (signal relative to DMSO) ([3]; 5 uM)	Burkin Assay in Myotubes (signal relative to DMSO) ([3]; 10 uM)	Burkin Assay in Myotubes (signal relative to DMSO) ([3]; 20 uM)	Burkin Assay in Myotubes (signal relative to DMSO) ([3]; 40 uM)	also measured
Cc1ccc(NC(=O)C2CCCCC2C(=O)O)cc1C (stereo not shown) [MLS000850824-01]																	fold induction at 0.5 µM ([1]; Mus musculus, Myoblast, 48 h, 0.5 uM, read-out: Burkin Assay in Myoblasts, value relative to DMSO): 1.17; fold induction at 1 µM ([1]; Mus musculus, Myoblast, 48 h, 1 uM, read-out: Burkin Assay in Myoblasts, value relative to DMSO): 1.27; fold induction at 5 µM ([1]; Mus musculus, Myoblast, 48 h, 5 uM, read-out: Burkin Assay in Myoblasts, value relative to DMSO): 1.08; fold induction at 10 µM ([1]; Mus musculus, Myoblast, 48 h, 10 uM, read-out: Burkin Assay in Myoblasts, value relative to DMSO): 1.08; fold induction at 20 µM ([1]; Mus musculus, Myoblast, 48 h, 20 uM, read-out: Burkin Assay in Myoblasts, value relative to DMSO): 0.986; fold induction at 40 µM ([1]; Mus musculus, Myoblast, 48 h, 40 uM, read-out: Burkin Assay in Myoblasts, value relative to DMSO): 1.06; fold induction at 5 µM ([2]; Mus musculus, C2C12, read-out: CMV-LACZ in Myotubes, signal relative to DMSO, 5 uM, C2C12 CMV-LacZ myotubes, fold relative to DMSO): 0.885; fold induction at 10 µM ([2]; Mus musculus, C2C12, read-out: CMV-LACZ in Myotubes, signal relative to DMSO, 10 uM, C2C12 CMV-LacZ myotubes, fold relative to DMSO): 0.992; fold induction at 20 µM ([2]; Mus musculus, C2C12, read-out: CMV-LACZ in Myotubes, signal relative to DMSO, 20 uM, C2C12 CMV-LacZ myotubes, fold relative to DMSO): 0.995; fold induction at 40 µM ([2]; Mus musculus, C2C12, read-out: CMV-LACZ in Myotubes, signal relative to DMSO, 40 uM, C2C12 CMV-LacZ myotubes, fold relative to DMSO): 0.946; fold induction at 0.5 µM ([3]; Mus musculus, Myotube, 0.5 uM, read-out: Burkin Assay in Myotubes (signal relative to DMSO)): 0.908; fold induction at 1 µM ([3]; Mus musculus, Myotube, 1 uM, read-out: Burkin Assay in Myotubes (signal relative to DMSO)): 1.09; fold induction at 5 µM ([3]; Mus musculus, Myotube, 5 uM, read-out: Burkin Assay in Myotubes (signal relative to DMSO)): 0.99; fold induction at 10 µM ([3]; Mus musculus, Myotube, 10 uM, read-out: Burkin Assay in Myotubes (signal relative to DMSO)): 1.07; fold induction at 20 µM ([3]; Mus musculus, Myotube, 20 uM, read-out: Burkin Assay in Myotubes (signal relative to DMSO)): 1.14; fold induction at 40 µM ([3]; Mus musculus, Myotube, 40 uM, read-out: Burkin Assay in Myotubes (signal relative to DMSO)): 1.21
O=C(COC(=O)c1cc2ccccc2oc1=O)Nc1ccc(F)cc1F [MLS000516719-01]	1.006	1.048	1.0321	1.068	0.9197	0.9651	0.8894	1.114	1.103	1.072	0.8618	1.0239	1.203	1.184	1.107	1.175	
Cc1nnc(NC(=O)CSc2nnc(CCNC(=O)c3ccccc3F)n2C)s1 [MLS001217045-01]	0.881	0.9697	1.087	1.112	1.057	1.109	0.9613	0.9821	0.9272	0.9127	1.001	1.156	0.94	1.154	1.115	1.051	
O=C(O)c1cc(N=Cc2c(O)c3ccccc3oc2=O)ccc1O [MLS001216260-01]																	Burkin Assay in Myoblasts, signal relative to DMSO ([1]; 0.5 uM): 1.0145; Burkin Assay in Myoblasts, signal relative to DMSO ([1]; 1 uM): 0.984; Burkin Assay in Myoblasts, signal relative to DMSO ([1]; 5 uM): 0.8531; Burkin Assay in Myoblasts, signal relative to DMSO ([1]; 10 uM): 0.8798; Burkin Assay in Myoblasts, signal relative to DMSO ([1]; 20 uM): 0.8781; Burkin Assay in Myoblasts, signal relative to DMSO ([1]; 40 uM): 0.8933; CMV-LACZ in Myotubes, signal relative to DMSO [2, 4]: 0.8516; CMV-LACZ in Myotubes, signal relative to DMSO [2, 5]: 1.031; CMV-LACZ in Myotubes, signal relative to DMSO [2, 6]: 1.09; CMV-LACZ in Myotubes, signal relative to DMSO [2, 7]: 0.8367; Burkin Assay in Myotubes, α7 integrin LacZ reporter signal relative to DMSO ([3]; 0.5 uM): 1.005; Burkin Assay in Myotubes, α7 integrin LacZ reporter signal relative to DMSO ([3]; 1 uM): 0.9893; Burkin Assay in Myotubes, α7 integrin LacZ reporter signal relative to DMSO ([3]; 5 uM): 1.16; Burkin Assay in Myotubes, α7 integrin LacZ reporter signal relative to DMSO ([3]; 10 uM): 1.06; Burkin Assay in Myotubes, α7 integrin LacZ reporter signal relative to DMSO ([3]; 20 uM): 0.9144; Burkin Assay in Myotubes, α7 integrin LacZ reporter signal relative to DMSO ([3]; 40 uM): 0.9348
O=C(NC1CCCC1)c1ccc(CS(=O)(=O)Cc2ccccc2F)o1 [MLS001030746-01]	0.9195	0.8373	1.069	1.073	0.9338	0.9637	0.9791	0.8757	1.098	0.9912	1.047	0.9692	1.031	0.9496	0.9886	1.067	
COc1ccccc1OCC(=O)Nc1cc2c(cc1C(=O)O)OCCCO2 [MLS001177045-01]	0.8463	1.032	1.0025	1.0259	1.031	0.9569	0.9238	1.11	1.058	1.118	1.047	0.8145	1.024	1.0851	1.11	0.9678	
CC(=O)Nc1c(-c2ccc(Cl)cc2)c(=O)c2ccccc2n1C [MLS001214461-01]	1.064	0.9241	0.8964	0.8123	0.8472	0.767					1.207	0.9586	1.072	0.9457	1.087	0.8844	CMV-LACZ in Myotubes, signal relative to DMSO [2, 4]: 0.8137; CMV-LACZ in Myotubes, signal relative to DMSO [2, 5]: 0.9363; CMV-LACZ in Myotubes, signal relative to DMSO [2, 6]: 0.9167; CMV-LACZ in Myotubes, signal relative to DMSO [2, 7]: 0.9566
